These results are taken from ChEMBL document CHEMBL4184154, “Docking based design of diastereoisomeric MTCA as GPIIb/IIIa receptor inhibitor” (Bioorg Med Chem Lett, 2017).

Active and inactive are the calls of the source. The calls are words filed in the database; no cut-off is given here. Where a SMILES comes first, the peptide text is derived from it. Bridges are numbered along the chain shown (N, C = ends). [ ]: non-standard residue; d: D form. hArg = N=C(N)NCCCC[C@H](N)C(=O)O; Mpa = O=C(O)CCS

The subject of assay [1] is Rattus norvegicus. As to the kind of experiment: Anti-thrombotic activity in Sprague-Dawley rat arterial thrombosis model assessed as reduction in thrombus weight at 16.7 umol/kg, po pretreated for 30 mins followed by thrombosis induction measured after 15 mins. The format is functional, organism-based.
Assay [2] concerns the target T1, Integrin subunit alpha 2b/beta-3 (Rattus norvegicus) (UniProt D3ZAC0+Q8R2H2). As to the kind of experiment: Inhibition of GP2b/3a in rat platelet-rich plasma assessed as reduction in arachidonic acid-induced platelet aggregation at 10^-8 to 10^-2 M after 5 mins by aggregometric analysis.
For assay [3], the target named is T1, Integrin subunit alpha 2b/beta-3 (Rattus norvegicus). Briefly: Inhibition of GP2b/3a in rat platelet-rich plasma assessed as reduction in arachidonic acid-induced platelet aggregation at 10^-8 to 10^-5 M after 5 mins by aggregometric analysis.
Assay [4] relates to Rattus norvegicus. As to the kind of experiment: Anti-thrombotic activity in Sprague-Dawley rat arterial thrombosis model assessed as reduction in thrombus weight at 1 umol/kg, po pretreated for 30 mins followed by thrombosis induction measured after 15 mins. The assay is classed as functional, organism-based.
The target of assay [5] is T2, Integrin subunit alpha 2b/beta-3 (Rattus norvegicus, UniProt D3ZAC0+Q8R2H2).
T2 sequence (D3ZAC0 whole entry): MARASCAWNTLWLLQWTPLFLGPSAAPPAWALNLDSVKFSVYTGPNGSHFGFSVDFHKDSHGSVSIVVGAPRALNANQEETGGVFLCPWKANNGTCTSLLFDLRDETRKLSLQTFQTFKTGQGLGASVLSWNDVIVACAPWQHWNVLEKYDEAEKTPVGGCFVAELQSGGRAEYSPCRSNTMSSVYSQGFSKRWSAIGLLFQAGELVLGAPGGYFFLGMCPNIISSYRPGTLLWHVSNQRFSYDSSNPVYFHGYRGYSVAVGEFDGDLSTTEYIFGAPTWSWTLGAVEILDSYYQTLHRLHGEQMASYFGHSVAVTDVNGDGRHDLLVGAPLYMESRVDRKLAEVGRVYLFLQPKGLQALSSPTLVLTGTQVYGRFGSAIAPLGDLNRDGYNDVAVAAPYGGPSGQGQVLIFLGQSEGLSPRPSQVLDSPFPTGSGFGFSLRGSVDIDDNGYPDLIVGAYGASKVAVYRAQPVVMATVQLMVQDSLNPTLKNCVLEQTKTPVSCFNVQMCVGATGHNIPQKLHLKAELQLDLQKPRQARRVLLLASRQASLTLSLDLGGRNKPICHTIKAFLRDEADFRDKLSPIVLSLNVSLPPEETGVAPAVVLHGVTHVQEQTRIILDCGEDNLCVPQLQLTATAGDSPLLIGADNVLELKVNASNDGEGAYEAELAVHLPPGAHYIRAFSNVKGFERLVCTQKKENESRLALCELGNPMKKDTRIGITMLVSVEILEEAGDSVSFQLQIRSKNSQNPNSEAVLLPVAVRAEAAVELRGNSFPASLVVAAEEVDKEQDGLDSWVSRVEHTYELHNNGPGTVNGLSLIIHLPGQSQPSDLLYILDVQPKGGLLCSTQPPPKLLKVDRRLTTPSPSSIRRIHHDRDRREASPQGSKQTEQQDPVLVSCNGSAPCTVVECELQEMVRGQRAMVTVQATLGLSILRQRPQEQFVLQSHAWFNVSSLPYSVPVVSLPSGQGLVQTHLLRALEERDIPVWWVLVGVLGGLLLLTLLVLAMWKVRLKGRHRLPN
T2 sequence (Q8R2H2 whole entry): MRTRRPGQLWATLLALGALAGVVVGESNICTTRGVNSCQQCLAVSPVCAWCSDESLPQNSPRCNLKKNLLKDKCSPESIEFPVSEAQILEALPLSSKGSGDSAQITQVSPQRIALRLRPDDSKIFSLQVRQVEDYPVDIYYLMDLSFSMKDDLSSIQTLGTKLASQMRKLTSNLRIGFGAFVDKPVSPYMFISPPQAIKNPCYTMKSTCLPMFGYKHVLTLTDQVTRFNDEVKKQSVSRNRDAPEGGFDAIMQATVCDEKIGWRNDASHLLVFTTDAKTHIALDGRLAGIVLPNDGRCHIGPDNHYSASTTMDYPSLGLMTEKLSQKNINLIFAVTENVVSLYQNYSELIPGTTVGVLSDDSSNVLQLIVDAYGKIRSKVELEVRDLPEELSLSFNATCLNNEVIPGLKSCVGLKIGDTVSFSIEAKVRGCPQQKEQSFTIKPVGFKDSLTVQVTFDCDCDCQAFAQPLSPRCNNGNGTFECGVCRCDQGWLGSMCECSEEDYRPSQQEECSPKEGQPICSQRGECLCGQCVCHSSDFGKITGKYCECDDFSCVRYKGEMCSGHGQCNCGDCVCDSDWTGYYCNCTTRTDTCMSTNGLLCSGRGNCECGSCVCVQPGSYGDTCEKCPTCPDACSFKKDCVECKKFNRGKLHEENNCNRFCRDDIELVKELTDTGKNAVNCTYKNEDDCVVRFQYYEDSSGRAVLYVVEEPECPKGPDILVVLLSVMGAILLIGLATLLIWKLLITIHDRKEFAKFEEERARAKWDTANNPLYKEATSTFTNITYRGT
Briefly: Binding affinity to GP2b/3a in rat blood assessed as conformational change by measuring soluble GP2b/3a levels after 12 hrs by UV-spectrophotometric analysis.

A further assay deals with Platelet. Briefly: Antiplatelet activity in rat platelet-rich plasma assessed as inhibition of arachidonic acid-induced platelet aggregation by atomic force microscopic method. The assay is classed as functional.
Assay [6] has as its system Rattus norvegicus. Briefly: Antiplatelet activity in Sprague Dawley rat arterial thrombosis model assessed as downregulation of GP2b/3a protein expression in plasma administered at 1 umol/kg, po by ELISA. The format is functional, organism-based. Background: An ELISA detects its analyte on a solid surface through an enzyme-linked reagent.

For `CC(=O)Oc1ccccc1C(=O)O`, the outcome in the assay with Rattus norvegicus [1] was Active.
Regarding `N=C(N)NCCC[C@H](N)C(=O)NCC(=O)N[C@@H](CC(=O)O)C(=O)N[C@@H](CO)C(=O)O`, in assay [2], the inhibition entry is “Active”.
Consider `N=C(N)NCCCC[C@@H]1NC(=O)CCSSC[C@@H](C(N)=O)NC(=O)[C@@H]2CCCN2C(=O)[C@H](Cc2c[nH]c3ccccc23)NC(=O)[C@H](CC(=O)O)NC(=O)CNC1=O` ([Mpa][hArg]GDWPC-NH2; disulfide 1-7), for which the inhibition entry in assay [3] is “Active”.
As for `C[C@H]1N[C@H](C(=O)O)Cc2c1[nH]c1ccccc21`, the result with Rattus norvegicus [4] and in the assay with Rattus norvegicus [6] was Active. Further, the EC50 in assay [5] was 1160 nM. Moreover, the Activity entry in the assay with Platelet was “Dose-dependent effect”. In addition, in the assay with Platelet, the MEC is reported as 1 ×10⁻⁶ M. In addition, the inhibition result in assay [3] was “Active”.
Consider `C[C@@H]1N[C@H](C(=O)O)Cc2c1[nH]c1ccccc21`, for which the result in the assay with Rattus norvegicus [4] and with Rattus norvegicus [6] was Active. Also, in assay [5], the EC50 was determined as 1660 nM. Further, the Activity result in the assay on Platelet was “Dose-dependent effect”. Besides, the MEC in the assay with Platelet is given as 1 ×10⁻⁵ M. Further, the inhibition entry in assay [3] was “Active”.

One may read the EC50 as the concentration needed to bring the measured effect to its halfway point.
